Measured values as given in patent EP0024348A1, “Substituted 6-Phenethyl-and phenylethenyl-3,4,5,6-tetrahydro-4-hydroxytetraydropyran-2-ones in the4-R trans stereoisomeric forms and the corresponding dihydroxy acids, process for preparing and pharmaceutical composition comprising them” (Merck & Co., Inc., priority 1979, dated 1981).
Counter-ions that a name gives are not always drawn.

Target: T1, 3-hydroxy-3-methylglutaryl coenzyme A reductase (Rattus norvegicus, UniProt P51639)
T1 sequence (P51639 1-887): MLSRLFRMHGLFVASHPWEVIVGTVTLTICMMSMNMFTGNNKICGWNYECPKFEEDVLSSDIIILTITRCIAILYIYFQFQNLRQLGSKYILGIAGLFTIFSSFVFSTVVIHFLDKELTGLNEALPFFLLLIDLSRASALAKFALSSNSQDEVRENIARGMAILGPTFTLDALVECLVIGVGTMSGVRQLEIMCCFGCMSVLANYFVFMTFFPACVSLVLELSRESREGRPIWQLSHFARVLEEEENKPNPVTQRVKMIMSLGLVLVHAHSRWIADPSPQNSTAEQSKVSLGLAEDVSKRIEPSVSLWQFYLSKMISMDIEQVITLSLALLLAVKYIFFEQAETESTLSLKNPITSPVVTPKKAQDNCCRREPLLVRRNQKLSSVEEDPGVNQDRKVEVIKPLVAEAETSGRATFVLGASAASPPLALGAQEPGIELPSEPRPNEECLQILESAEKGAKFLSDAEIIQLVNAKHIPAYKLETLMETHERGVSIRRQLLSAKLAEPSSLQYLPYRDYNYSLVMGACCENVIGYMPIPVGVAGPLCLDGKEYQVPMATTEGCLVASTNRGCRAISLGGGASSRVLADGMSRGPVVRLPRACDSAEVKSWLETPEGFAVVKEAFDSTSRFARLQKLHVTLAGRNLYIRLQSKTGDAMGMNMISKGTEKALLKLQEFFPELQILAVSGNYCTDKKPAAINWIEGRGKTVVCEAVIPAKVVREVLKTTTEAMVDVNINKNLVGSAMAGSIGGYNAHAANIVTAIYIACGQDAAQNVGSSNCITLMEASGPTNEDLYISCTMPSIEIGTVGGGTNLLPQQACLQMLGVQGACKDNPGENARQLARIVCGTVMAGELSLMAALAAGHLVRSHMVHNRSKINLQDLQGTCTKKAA
Assay: Method A: in vitro enzyme inhibition by the method of Knauss et al.
Assay type: biochemical
From the text: The inhibitory activity of these compounds for the biosynthesis of cholesterol has been measured by two methods. The experimental method A has been realized in vitro by the method of H. J. Knauss, et al., J. Biol. Chem., 234, 2835 (1959) and the activity was expressed as the molar concentration IC50(M) necessary for the inhibition of 50% of the enzymatic activity. The experimental method B was the method of A. A. Kandutsch, et al., J. Biol. Chem., 248, 8403 (1973) for measuring the quantity of ^14C-cholesterol biosynthesis from acetic acid-^14C in mouse L cells. The activity is expressed for inhibition of 50% of the biosynthesis of cholesterol.

IC50 (test by method A) | potency compared with compactin (both tested as the sodium salts of their corresponding hydroxy acid forms) | IC50 (tested as the sodium salts of their corresponding hydroxy acid forms, method not restated) | Structure (SMILES)
0.068 µM | – | – | O=C1C[C@H](O)C[C@@H](CCc2c(Cl)cc(Cl)cc2OCc2ccccc2)O1 (single isomer, unassigned) [Example 14, (+)-Trans-6-[2-(2,4-dichloro-6-phenylmethoxyphenyl)ethyl]-3,4,5,6-tetrahydro-4-hydroxy-2H-pyran-2-one]
– | greater than that of compactin | ~0.0028 µM | O=C(O)C[C@H](O)C[C@H](O)/C=C/c1c(Cl)cc(Cl)cc1-c1ccc(F)cc1 (single isomer, unassigned) [Example 38, (+)-(E)-(3R*, 5S*)-7-(3,5-dichloro-4'-fluoro[1,1'-biphenyl]-2y1)-3,5-dihydroxy-6-heptenoic acid, ammonium salt]
